From ChEMBL document CHEMBL2074432, “Human jejunal permeability of cyclosporin A: influence of surfactants on P-glycoprotein efflux in Caco-2 cells” (Pharm Res, 2003)

Target: ATP-dependent translocase ABCB1 (Homo sapiens, UniProt P08183)
Assay: TP_TRANSPORTER: transepithelial transport of cyclosporin A in Caco-2 cells
Format: functional, cell-based

ATP-dependent translocase ABCB1, sequence (P08183 whole entry): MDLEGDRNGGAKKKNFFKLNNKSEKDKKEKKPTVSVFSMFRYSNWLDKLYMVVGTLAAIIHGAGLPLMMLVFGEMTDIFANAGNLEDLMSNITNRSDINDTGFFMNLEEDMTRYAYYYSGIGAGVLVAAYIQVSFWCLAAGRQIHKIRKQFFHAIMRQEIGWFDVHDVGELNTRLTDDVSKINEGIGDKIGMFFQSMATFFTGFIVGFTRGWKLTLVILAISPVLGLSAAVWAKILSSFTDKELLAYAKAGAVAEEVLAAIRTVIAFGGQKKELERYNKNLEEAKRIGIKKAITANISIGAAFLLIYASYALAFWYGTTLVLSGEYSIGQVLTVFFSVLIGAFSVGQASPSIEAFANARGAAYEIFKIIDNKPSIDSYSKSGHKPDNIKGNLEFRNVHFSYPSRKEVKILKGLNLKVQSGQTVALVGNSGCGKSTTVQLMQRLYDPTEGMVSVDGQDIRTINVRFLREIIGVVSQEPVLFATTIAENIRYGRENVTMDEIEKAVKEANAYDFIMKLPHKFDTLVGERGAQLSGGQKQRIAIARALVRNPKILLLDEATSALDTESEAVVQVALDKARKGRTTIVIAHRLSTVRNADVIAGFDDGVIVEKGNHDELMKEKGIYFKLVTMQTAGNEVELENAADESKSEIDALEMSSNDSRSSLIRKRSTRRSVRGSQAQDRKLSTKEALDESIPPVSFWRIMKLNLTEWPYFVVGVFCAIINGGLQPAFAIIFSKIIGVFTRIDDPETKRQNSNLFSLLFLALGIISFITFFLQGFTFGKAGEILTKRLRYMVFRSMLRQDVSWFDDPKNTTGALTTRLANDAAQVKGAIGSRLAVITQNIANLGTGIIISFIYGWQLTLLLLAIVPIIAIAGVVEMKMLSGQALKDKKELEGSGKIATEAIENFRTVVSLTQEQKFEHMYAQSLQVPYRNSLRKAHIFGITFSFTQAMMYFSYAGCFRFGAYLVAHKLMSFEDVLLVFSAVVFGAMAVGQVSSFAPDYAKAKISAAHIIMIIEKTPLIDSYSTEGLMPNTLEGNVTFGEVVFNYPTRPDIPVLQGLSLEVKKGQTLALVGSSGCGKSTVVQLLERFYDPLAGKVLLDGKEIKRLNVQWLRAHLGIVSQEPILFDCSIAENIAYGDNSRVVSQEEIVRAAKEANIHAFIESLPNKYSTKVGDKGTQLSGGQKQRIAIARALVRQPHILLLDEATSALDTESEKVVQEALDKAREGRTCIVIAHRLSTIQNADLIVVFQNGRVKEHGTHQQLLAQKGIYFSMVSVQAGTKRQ

Sequence	Activity
CREMOPHOR EL	inhibitor [+]
CREMOPHOR RH 40	inhibitor [+]
